Read-outs that look alike come from different tables or passages of the source.
Tested on: SNU-16 cells
Test: Inhibition of FGFR2-dependent cell growth (Cell-titer Glo)
Type: cell-based
Conditions: Homo sapiens, 72 hrs incubation, cell viability, read-out: SNU16 IC50 values
Protocol: The cell-based effects of FGFR inhibitors were determined by measuring inhibition of FGFR-dependent cell line growth. The cell lines SNU-16 was used for these assays. […] Percent inhibition of cell growth was calculated as a percentage of untreated cell viability. The percent inhibition was plotted as a function of log compound concentration. The IC50 was then calculated for each compound using Prism software from GraphPad.

CNc1ncc2cc(-c3cc(OC)cc(OC)c3Cl)c(=O)n(CCc3ccc(NC(=O)C(C#N)=CC(C)(C)N)nc3)c2n1 [Cpd 21 (table 2), 4-amino-N-(5-(2-(6-(2-chloro-3,5-dimethoxyphenyl)-2-(methylamino)-7-oxopyrido[2,3-d]pyrimidin-8(7H)-yl)ethyl)pyridin-2-yl)-2-cyano-4-methylpent-2-enamide]
IC50 (SNU-16, 72 h): 33.1 nM

CNc1ncc2cc(-c3cc(OC)cc(OC)c3Cl)c(=O)n(CCc3cccc(NC(=O)C(C#N)=CC(C)(C)N)n3)c2n1 [Cpd 17 (table 2), 4-amino-N-(6-(2-(6-(2-chloro-3,5-dimethoxyphenyl)-2-(methylamino)-7-oxopyrido[2,3-d]pyrimidin-8(7H)-yl)ethyl)pyridin-2-yl)-2-cyano-4-methylpent-2-enamide]
IC50 (SNU-16, 72 h): 8.1 nM

CNc1ncc2cc(-c3cc(OC)cc(OC)c3Cl)c(=O)n(CCc3ccc(NC(=O)C(C#N)=CC(C)(C)N(C)C4COC4)cc3)c2n1 [Cpd 29 (table 2), N-(4-(2-(6-(2-chloro-3,5-dimethoxyphenyl)-2-(methylamino)-7-oxopyrido[2,3-d]pyrimidin-8(7H)-yl)ethyl)phenyl)-2-cyano-4-methyl-4-(methyl(oxetan-3-yl)amino)pent-2-enamide]
IC50 (SNU-16, 72 h): 1.4 nM

CNc1ncc2cc(-c3cc(OC)cc(OC)c3Cl)c(=O)n(CCc3cccc(NC(=O)C(C#N)=CC(C)(C)N(C)C4COC4)c3)c2n1 [Cpd 43 (table 2), N-(3-(2-(6-(2-chloro-3,5-dimethoxyphenyl)-2-(methylamino)-7-oxopyrido[2,3-d]pyrimidin-8(7H)-yl)ethyl)phenyl)-2-cyano-4-methyl-4-(methyl(oxetan-3-yl)amino)pent-2-enamide]
IC50 (SNU-16, 72 h): 2.4 nM

CNc1ncc2cc(-c3cc(OC)cc(OC)c3Cl)c(=O)n(CCc3cccc(N(C)C(=O)C(C#N)=CC(C)(C)N)c3)c2n1 [Cpd 26 (table 2), 4-amino-N-(3-(2-(6-(2-chloro-3,5-dimethoxyphenyl)-2-(methylamino)-7-oxopyrido[2,3-d]pyrimidin-8(7H)-yl)ethyl)phenyl)-2-cyano-N,4-dimethylpent-2-enamide]
IC50 (SNU-16, 72 h): 56 nM

COc1cc(OC)c(Cl)c(-c2cc3cnc(N)nc3n(CCc3cccc(NC(=O)C(C#N)=CC(C)(C)C)c3)c2=O)c1 [Cpd 50 (table 2), N-(3-(2-(2-amino-6-(2-chloro-3,5-dimethoxyphenyl)-7-oxopyrido[2,3-d]pyrimidin-8(7H)-yl)ethyl)phenyl)-2-cyano-4,4-dimethylpent-2-enamide]
IC50 (SNU-16, 72 h): 4.6 nM

CNc1ncc2cc(-c3cc(OC)cc(OC)c3Cl)c(=O)n(CCN3C[C@@H]4CN(C(=O)C(C#N)=CC(C)(C)C)C[C@@H]4C3)c2n1 [Cpd 6 (table 1), 2-((3aR,6aS)-5-(2-(6-(2-chloro-3,5-dimethoxyphenyl)-2-(methylamino)-7-oxopyrido[2,3-d]pyrimidin-8(7H)-yl)ethyl)octahydropyrrolo[3,4-c]pyrrole-2-carbonyl)-4,4-dimethylpent-2-enenitrile]
IC50 (SNU-16, 72 h): 649 nM

CNc1ncc2cc(-c3cc(OC)cc(OC)c3Cl)c(=O)n(CCc3cccc(NC(=O)C(C#N)=CC(C)(C)N4CCC(O)CC4)c3)c2n1 [Cpd 53 (table 2), N-(3-(2-(6-(2-chloro-3,5-dimethoxyphenyl)-2-(methylamino)-7-oxopyrido[2,3-d]pyrimidin-8(7H)-yl)ethyl)phenyl)-2-cyano-4-(4-hydroxypiperidin-1-yl)-4-methylpent-2-enamide]
IC50 (SNU-16, 72 h): 5.1 nM

CCOC(C)(C)C=C(C#N)C(=O)Nc1ccc(CCn2c(=O)c(-c3cc(OC)cc(OC)c3Cl)cc3cnc(NC)nc32)cc1 [Cpd 27 (table 2), N-(4-(2-(6-(2-chloro-3,5-dimethoxyphenyl)-2-(methylamino)-7-oxopyrido[2,3-d]pyrimidin-8(7H)-yl)ethyl)phenyl)-2-cyano-4-ethoxy-4-methylpent-2-enamide]
IC50 (SNU-16, 72 h): 4.2 nM

CNc1ncc2cc(-c3cc(OC)cc(OC)c3Cl)c(=O)n(CCc3cccc(N(C)C(=O)C(C#N)=CC(C)(C)N(C)C)c3)c2n1 [Cpd 39 (table 2), N-(3-(2-(6-(2-chloro-3,5-dimethoxyphenyl)-2-(methylamino)-7-oxopyrido[2,3-d]pyrimidin-8(7H)-yl)ethyl)phenyl)-2-cyano-4-(dimethylamino)-N,4-dimethylpent-2-enamide]
IC50 (SNU-16, 72 h): 40.2 nM

CNc1ncc2cc(-c3cc(OC)cc(OC)c3Cl)c(=O)n(CCc3ccc(NC(=O)C(C#N)=CC(C)(C)N4CCN(C5COC5)CC4)cc3)c2n1 [Cpd 61 (table 2), N-(4-(2-(6-(2-chloro-3,5-dimethoxyphenyl)-2-(methylamino)-7-oxopyrido[2,3-d]pyrimidin-8(7H)-yl)ethyl)phenyl)-2-cyano-4-methyl-4-(4-(oxetan-3-yl)piperazin-1-yl)pent-2-enamide]
IC50 (SNU-16, 72 h): 4.3 nM

COc1cc(OC)c(Cl)c(-c2cc3cnc(NCC(C)(C)O)nc3n(CCc3cccc(NC(=O)C(C#N)=CC(C)(C)C)c3)c2=O)c1 [Cpd 52 (table 2), N-(3-(2-(6-(2-chloro-3,5-dimethoxyphenyl)-2-((2-hydroxy-2-methylpropyl)amino)-7-oxopyrido[2,3-d]pyrimidin-8(7H)-yl)ethyl)phenyl)-2-cyano-4,4-dimethylpent-2-enamide]
IC50 (SNU-16, 72 h): 15.7 nM

CNc1ncc2cc(-c3cc(OC)cc(OC)c3Cl)c(=O)n(CCc3cnc(NC(=O)C(C#N)=CC(C)(C)C)cn3)c2n1 [Cpd 71 (table 2), N-(5-(2-(6-(2-chloro-3,5-dimethoxyphenyl)-2-(methylamino)-7-oxopyrido[2,3-d]pyrimidin-8(7H)-yl)ethyl)pyrazin-2-yl)-2-cyano-4,4-dimethylpent-2-enamide]
IC50 (SNU-16, 72 h): 79.6 nM

CNc1ncc2cc(-c3cc(OC)cc(OC)c3)c(=O)n(CCc3ccc(NC(=O)C(C#N)=CC(C)(C)C)cc3)c2n1 [Cpd 8 (table 2), 2-cyano-N-(4-(2-(6-(3,5-dimethoxyphenyl)-2-(methylamino)-7-oxopyrido[2,3-d]pyrimidin-8(7H)-yl)ethyl)phenyl)-4,4-dimethylpent-2-enamide]
IC50: 18.6 nM

COc1cc(OC)c(Cl)c(-c2cc3cnc(NCCN4CCOCC4)nc3n(CCc3ccc(NC(=O)C(C#N)=CC(C)(C)C)cc3)c2=O)c1 [Cpd 68 (table 2), N-(4-(2-(6-(2-chloro-3,5-dimethoxyphenyl)-2-((2-morpholinoethyl)amino)-7-oxopyrido[2,3-d]pyrimidin-8(7H)-yl)ethyl)phenyl)-2-cyano-4,4-dimethylpent-2-enamide]
IC50 (SNU-16, 72 h): 35.5 nM

CNc1ncc2cc(-c3cc(OC)cc(OC)c3)c(=O)n(CCc3cccc(NC(=O)C(C#N)=CC(C)(C)N)c3)c2n1 [Cpd 11 (table 2), 4-amino-2-cyano-N-(3-(2-(6-(3,5-dimethoxyphenyl)-2-(methylamino)-7-oxopyrido[2,3-d]pyrimidin-8(7H)-yl)ethyl)phenyl)-4-methylpent-2-enamide]
IC50 (SNU-16, 72 h): 73.4 nM

CNc1ncc2cc(-c3c(Cl)c(OC)cc(OC)c3Cl)c(=O)n(CCN3CCN(C(=O)C(C#N)=CC(C)(C)C)CC3)c2n1 [Cpd 3 (table 1), 2-(4-(2-(6-(2,6-dichloro-3,5-dimethoxyphenyl)-2-(methylamino)-7-oxopyrido[2,3-d]pyrimidin-8(7H)-yl)ethyl)piperazine-1-carbonyl)-4,4-dimethylpent-2-enenitrile]
IC50 (SNU-16, 72 h): 34 nM

CCN(CC)CCCCNc1ncc2cc(-c3c(Cl)c(OC)cc(OC)c3Cl)c(=O)n(Cc3cccc(NC(=O)C(C#N)=CC(C)C)c3)c2n1 [Cpd 5 (table 2), 2-cyano-N-(3-((6-(2,6-dichloro-3,5-dimethoxyphenyl)-2-((4-(diethylamino)butyl)amino)-7-oxopyrido[2,3-d]pyrimidin-8(7H)-yl)methyl)phenyl)-4-methylpent-2-enamide]
IC50 (SNU-16, 72 h): 1.5 nM

CCN(CC)CCCCNc1ncc2cc(-c3c(Cl)c(OC)cc(OC)c3Cl)c(=O)n(CCc3ccc(NC(=O)C(C#N)=CC(C)C)cc3)c2n1 [Cpd 4 (table 2), 2-cyano-N-(4-(2-(6-(2,6-dichloro-3,5-dimethoxyphenyl)-2-((4-(diethylamino)butyl)amino)-7-oxopyrido[2,3-d]pyrimidin-8(7H)-yl)ethyl)phenyl)-4-methylpent-2-enamide]
IC50 (SNU-16, 72 h): 5.3 nM

CNc1ncc2cc(-c3cc(OC)cc(OC)c3Cl)c(=O)n(CCc3cccc(NC(=O)C(C#N)=CC(C)(C)C)n3)c2n1 [Cpd 16 (table 2), N-(6-(2-(6-(2-chloro-3,5-dimethoxyphenyl)-2-(methylamino)-7-oxopyrido[2,3-d]pyrimidin-8(7H)-yl)ethyl)pyridin-2-yl)-2-cyano-4,4-dimethylpent-2-enamide]
IC50 (SNU-16, 72 h): 43.9 nM

CNc1ncc2cc(-c3cc(OC)cc(OC)c3Cl)c(=O)n(CCc3ccc(NC(=O)C(C#N)=CC(C)(C)N4C[C@@H](C)N(C)[C@@H](C)C4)cc3)c2n1 [Cpd 60 (table 2), N-(4-(2-(6-(2-chloro-3,5-dimethoxyphenyl)-2-(methylamino)-7-oxopyrido[2,3-d]pyrimidin-8(7H)-yl)ethyl)phenyl)-2-cyano-4-methyl-4-((3S,5R)-3,4,5-trimethylpiperazin-1-yl)pent-2-enamide]
IC50 (SNU-16, 72 h): 5.6 nM

CNc1ncc2cc(-c3cc(OC)cc(OC)c3Cl)c(=O)n(CCCN3CCN(C(=O)C(C#N)=CC(C)(C)C)CC3)c2n1 [Cpd 5 (table 1), 2-(4-(3-(6-(2-chloro-3,5-dimethoxyphenyl)-2-(methylamino)-7-oxopyrido[2,3-d]pyrimidin-8(7H)-yl)propyl)piperazine-1-carbonyl)-4,4-dimethylpent-2-enenitrile]
IC50 (SNU-16, 72 h): 27.2 nM

CNc1ncc2cc(-c3cc(OC)cc(OC)c3)c(=O)n(CCc3ccc(NC(=O)C(C#N)=CC(C)(C)N)cc3)c2n1 [Cpd 9 (table 2), 4-amino-2-cyano-N-(4-(2-(6-(3,5-dimethoxyphenyl)-2-(methylamino)-7-oxopyrido[2,3-d]pyrimidin-8(7H)-yl)ethyl)phenyl)-4-methylpent-2-enamide]
IC50: 29.7 nM

CNc1ncc2cc(-c3cc(OC)cc(OC)c3Cl)c(=O)n(CCN3CCN(C(=O)C(C#N)=CC(C)(C)C)CC3)c2n1 [Cpd 2 (table 1), 2-(4-(2-(6-(2-chloro-3,5-dimethoxyphenyl)-2-(methylamino)-7-oxopyrido[2,3-d]pyrimidin-8(7H)-yl)ethyl)piperazine-1-carbonyl)-4,4-dimethylpent-2-enenitrile]
IC50 (SNU-16, 72 h): 50.8 nM

— patent US10538517B2, “Quinolone derivatives as FGFR inhibitors” (Principia Biopharma, Inc., priority 2015, dated 2020)
